One assay concerns Guinea Pig Ileum. Nature of the assay: Guinea pig ileum assay - tonic contraction (calcium channel blocking activity). Conditions: inhibition of K^+ (80 mM) induced tonic contraction, 37° C. Here is the method: GUINEA PIG ILEUM ASSAY--TONIC CONTRACTION
Male guinea-pigs weighing from 300-400 grams were stunned and bled. The abdomen was opened and 10-15 cm of terminal ileum was carefully removed and cleaned and placed in Tyrode's Solution of the following composition: NaCl (8 g/l), KCl (0.2 g/l), MgCl2 (0.2 g/l.). CaCl2 (0.2 g/l). NaH2 PO4 (0.05 g/l), NaHCO3 (1.0 g/l) and Glucose (1 g/l). The solution was maintained at 37° C. and gassed with 95%O2 and 5%CO2. Portions of the ileum were placed over a glass rod, a shallow incision was made the length of the mesenteric attachment just severing the outer-longitudinal muscle layer. The longitudinal muscle was separated from the underlying circular muscle by gentle dissection (Rang, H. P. Annals of N.Y. Academy of Science Vol. 144, page 756, (1964)). The tissue was fixed at one end to a tissue holder, the other end was connected by a thread to a force transducer and suspended in a muscle bath containing Tyrode's Solution maintained at 37° C. and gassed with 95%O2 and 5%CO2. An initial tension of 500 mg was applied and the tissue allowed to equilibrate for 60 minutes prior to the start of the study. During this period the tissue was washed every 16 minutes. Each preparation, at 16 minute intervals, was challenged with KCl sufficient to yield a bath K^+ concentration of 80 mMK for 2 minutes, then washed with fresh solution. The 16 minute interval between K^+ challenges was maintained throughout the study. Upon stabilization of the responses to the K^+ challenge the test compound (potential calcium entry antagonist) was introduced into the bath 2 minutes prior to and during the 2 minute exposure to K^+ after which the bath was cleared and washed with fresh solution. Logarithmically increasing doses (up to 10^-4 M) of the potential antagonist were administered as the study progressed.
The measure of compound's ability to inhibit the tonic contraction of muscle is a measure of its activity as a calcium channel blocking agent.

A further assay concerns SH rat. Nature of the assay: Blood pressure lowering in the spontaneously hypertensive (SH) rat. Type of assay: in vivo. Conditions: 50 mg/kg p.o.; for Duration: duration of SBP lowering. The procedure: BLOOD PRESSURE LOWERING IN THE SPONTANEOUSLY HYPERTENSIVE (SH) RAT
Six male SH rats were used for each test. Body weights were recorded. Six pre-drug control recordings of the systolic blood pressure (mmHg) were measured from the tails of the rats which were unanesthetized and restrained in holders. The rats were previously heated for 5-10 minutes at 32°-34° C. The systolic blood pressure was measured by an occlusion cuff.
The compounds were administered orally to the rats in a composition that included 5% compound and the remainder gum acacia. The blood pressure of the rats was measured over a period of hours following oral administration.
The measure of a compound's ability to decrease blood pressure, is a measure of its ability as an anti-hypertensive agent.

pIC50: −log10 of the molar value.

Consider `COc1ccc([C@@H]2Sc3c(ccc4ccccc34)N(CCN(C)C)C(=O)[C@H]2OC(C)=O)cc1` (racemic) [H, (±)-trans-3-(acetyloxy)-2,3-dihydro-2-(4-methoxyphenyl)-5-[2-(dimethylamino)ethyl]naphtho[1,2-b]-1,4-thiazepin-4(5H)-one], for which the pIC50 in the assay on Guinea Pig Ileum is 4.34.
For `COc1ccc([C@@H]2Sc3c(ccc4ccccc34)N(CCN(C)C)C(=O)[C@H]2O)cc1` (racemic) [G, (±)-trans-2,3-dihydro-3-hydroxy-2-(4-methoxyphenyl)-5-[2-(dimethylamino)ethyl]naphtho[1,2-b]-1,4-thiazepin-4(5H)-one], in the assay on Guinea Pig Ileum, the negative logarithm of the IC50 (pIC50) is 4.20.
As to `COc1ccc([C@@H]2Sc3c(ccc4ccccc34)N(CCN(C)C)C(=O)[C@@H]2O)cc1` [E, (-)-cis-2,3-dihydro-3-hydroxy-2-(4-methoxyphenyl)-5-[2-(dimethylamino)ethyl]naphtho[1,2-b]-1,4-thiazepin-4(5H)-one], in the assay on Guinea Pig Ileum, the pIC50 is 4.25.
In the case of `COc1ccc([C@@H]2Sc3c(ccc4ccccc34)N(CCN(C)C)C(=O)[C@@H]2OC(C)=O)cc1` [A, (+)-cis-3-(acetyloxy)-2,3-dihydro-2-(4-methoxyphenyl)-5-[2-(dimethylamino)ethyl]naphtho[1,2-b]-1,4-thiazepin-4(5H)-one], in the assay on SH rat, the “Systolic Blood Pressure (SBP) in the SH rat, SBP (Δ mm Hg)” value was -67 ± 7 mm Hg and the Duration stood at 19 h. Moreover, in the assay with Guinea Pig Ileum, the negative logarithm of the IC50 (pIC50) was 5.89.
In the case of `COc1ccc([C@@H]2Sc3c(ccc4ccccc34)N(CCN(C)C)C(=O)[C@@H]2O)cc1` (racemic) [C, (±)-cis-5-[2-(dimethylamino)ethyl]-2,3-dihydro-3-hydroxy-2-(4-methoxyphenyl)naphtho[1,2-b]-1,4-thiazepin-4(5H)-one], in the assay with Guinea Pig Ileum, the pIC50 is 6.28.
For the compound `COc1ccc([C@@H]2Sc3c(ccc4ccccc34)N(CCN(C)C)C(=O)[C@@H]2O)cc1` [B, (+)-cis-5-[2-(dimethylamino)ethyl]-2,3-dihydro-3-hydroxy-2-(4-methoxyphenyl)naphtho[1,2-b]-1,4-thiazepin-4(5H)-one], in the assay on SH rat, the “Systolic Blood Pressure (SBP) in the SH rat, SBP (Δ mm Hg)” value is -63 ± 9 mm Hg and the Duration is 24 h. In addition, the negative logarithm of the IC50 (pIC50) with Guinea Pig Ileum is 5.96.
For `COc1ccc([C@@H]2Sc3c(ccc4ccccc34)N(CCN(C)C)C(=O)[C@@H]2OC(C)=O)cc1` (racemic) [D, (±)-cis-3-(acetyloxy)-2,3-dihydro-2-(4-methoxyphenyl)-5-[2-(dimethylamino)ethyl]naphtho[1,2-b]-1,4-thiazepin-4(5H)-one], the negative logarithm of the IC50 (pIC50) in the assay with Guinea Pig Ileum is 6.64.

Broadly, the pIC50 is the negative decadic logarithm of the IC50, by convention in mol/L.

Source of the values: patent publication US4652561A, “Naphtho[1,2-b]-1,4-thiazepinones” (Hoffmann-La Roche Inc., priority 1986, dated 1987).
